Experimental data published in patent US20130090471A1, “METHOD FOR DETECTING COMPOUNDS THAT MODULATE THE CHOLESTEROL METABOLISM” (priority 2010, published 2013).
Positions of bridges follow the written chain, without caps; N, C: chain ends. Non-standard residues stand in square brackets, D forms with d. Residues, ends and D or L forms follow the SMILES beside them. *: point of attachment. Asp(3S-OH) = N[C@H](C(=O)O)[C@H](O)C(=O)O; Thr(4-Cl) = N[C@H](C(=O)O)[C@H](O)CCl; X1 = CCCCCCCCC[C@@H](O)CC(=O)*; dDab = NCC[C@@H](N)C(=O)O; Dab = NCC[C@H](N)C(=O)O; Dhb = C/C=C(\N)C(=O)O

Tests used:
Assay type in all cases: cell-based, Saccharomyces cerevisae
[1] = system: yIM126-pIM580-CYP27A1 yeast; assay: Test for restoration of growth on a YPG agar containing syringomycin E inoculated with a cholesterol-producing strain; details: syringomycin E 250 ng/ml, 48 h to 72 h at 30° C.
Description: The yIM126 yeasts containing the expression plasmids for DHCR24 with or without P450 are cultured in YNB medium, 2% glucose, adenine at 100 μg/ml for 48 h at 30° C. and then in Käppeli medium for 24 h at 30° C. as described above.
(§1) The yeast suspensions are diluted to an optical density at 600 nm of 0.005 unit ( 1/200) in YNB medium in order to inoculate a YPG agar containing syringomycin E at a dose that is toxic for the strain, i.e. 160 ng/ml for yIM126 containing the pIM582 plasmid, or 250 ng/ml for the yIM126 strain containing the pIM580 plasmid.
The inoculation of the agar medium is carried out by flooding its surface and immediately suctioning off the excess liquid. Products of interest are deposited on the agar surface thus inoculated, and then dried. […] Similarly, this method makes it possible to identify activators of enzymes, such as cytochromes P450, for instance CYP27A1, which catabolize cholesterol.
FIG. 7: Test for restoration of growth on a YPG agar containing syringomycin E inoculated with a cholesterol-producing strain.
The surface of a YPG agar medium containing syringomycin E at 250 ng/ml is inoculated with a covering of yIM126-pIM580-CYP27A1 yeast suspension. […]

[2] = system: yIM126 strain containing the pIM580 plasmid (with CYP27A1); assay: Growth of yeasts on YPG agar containing syringomycin E
Description: (§2) This culture medium is a rich medium of YPG agar type (YPG complete medium: yeast extract (Difco) 10 g/L, bactopeptone (Difco) 20 g/L, glucose (Merck) 20 g/L) supplemented with syringomycin E toxin from Pseudomonas syringae B-301D (Sigma #S6946) from 150 to 250 ng/ml.
(§3) The yIM126 yeast strains containing an expression vector for DHCR24 and cytochrome P450 such as pIM580, described previously, are cultured for 48 h with shaking at 30° C. in a YNB medium (yeast nitrogen base w/o amino acids (Difco) 6.7 g/L, glucose (Merck) 20 g/L) supplemented with 2% glucose and adenine at 100 μg/ml.
(§4) The culture reaches an optical density at 600 nm of about 7 units. The cell pellet is harvested by centrifugation and transferred into an identical volume of Käppeli medium containing […], 2% glucose and 100 μg/ml of adenine, and shaken at 30° C. for 24 h, reaching an optical density at 600 nm of about 40 units.
(§5) The cultures are diluted to 1 unit of optical density at 600 nm and then to 1/50 and then 25-fold dilutions in order to perform a drop test on YPG agars containing syringomycin E according to the methods known to those skilled in the art.
(§6) The toxicity of this YPG medium containing syringomycin E depends on the amount of cholesterol available in the yeast, observed by GC/FID or GC/MS.
as §1
(§7) FIG. 6: Test for growth of various strains producing and/or catabolizing cholesterol on a YPG agar containing syringomycin E (SRG): Yeast culture dilutions deposited on a YPG agar without syringomycin E(6A) or with syringomycin E at 170 ng/ml (6B); Dilution OD at 600 nm from top to bottom: 0.02/0.0008/[…].

[3] = system: yIM126 containing the pIM582 plasmid (without P450); assay: as above
Description: as §2, §3, §4, §5, §6, §1, §7

[4] = 2 μl of product at 0.1 mg/ml deposited
[5] = 2 μl of product at 1 mM deposited
[6] = YPG agar, inoculated at OD 600 nm 0.005
[7] = syringomycin E at 170 ng/ml, 48 h to 72 h at 30° C.

In the case of C[C@@H](CO)CCC[C@@H](C)[C@H]1CC[C@H]2[C@@H]3CC=C4C[C@@H](O)CC[C@]4(C)[C@H]3CC[C@]12C [27OH-cholesterol], the “area of protection with respect to the toxicity of the syringomycin E contained in the agar” value [1, 4] is reported as “induces an area of protection”.

Clc1ccccc1CNCC1CCC(CNCc2ccccc2Cl)CC1 (stereo not drawn) [AY9944] was tested, and the “restoration of growth (yeast growth halos around the deposits) on medium which is initially toxic” value (shortened to “restoration of growth”) [1, 5] was “verified”.

In the case of CCN(C/C=C\c1ccc(C2CCCCC2)c(Cl)c1)C1CCCCC1 [SR31747], the “restoration of growth” value [1, 5] is reported as “verified”.

With CCC(C)(C)c1ccc(CC(C)CN2C[C@@H](C)O[C@@H](C)C2)cc1 (stereo partly drawn) [amorolfine] the “restoration of growth” value [1, 4] was “verified”.

With CC(C)CCC[C@@H](C)[C@H]1CC[C@H]2[C@@H]3CC=C4C[C@@H](O)CC[C@]4(C)[C@H]3CC[C@]12C [cholesterol] the “area of protection with respect to the toxicity of the syringomycin E contained in the agar” value [1, 4] was “induces an area of protection”.

In the case of C/C=C1\NC(=O)[C@H](Cc2ccccc2)NC(=O)[C@H](CCCN=C(N)N)NC(=O)[C@@H](CCN)NC(=O)[C@H](CCN)NC(=O)[C@@H](CO)NC(=O)[C@@H](NC(=O)C[C@H](O)CCCCCCCCC)COC(=O)[C@H]([C@H](O)CCl)NC(=O)[C@H]([C@H](O)C(=O)O)NC1=O [syringomycin E] (X1-S[dS][Dab][dDab]RF[Dhb][Asp(3S-OH)][Thr(4-Cl)]; ester 1-C), the “dose that is toxic for the strain” value [2, 6] is reported as 250 ng/mL, the “growth of the yeasts in drop test” value [2, 7] is reported as “capable of growing” and the “dose that is toxic for the strain” value [3, 6] is reported as 160 ng/mL. The “growth of the yeasts in drop test” value [3, 7] was “not capable of growing”.
